Measurements taken from US20240043859A1, “HERBICIDE-RESISTANT PROTEIN, AND GENE AND USE THEREOF” (QINGDAO KINGAGROOT CHEMICAL COMPOUND CO., LTD., priority 2020, published 2024).
Entries after “also recorded” stand apart in the source; their conditions may differ.

Experiments:
[1] = biological target: T1, AAD-12 (Delftia acidovorans, UniProt P83309); assay: Degradation activities of AAD-12 on phenoxy acetic acid herbicides by spectrophotometry (A510); format: biochemical, Comamonas acidovorans; settings: for A510 of reaction group, Reaction 1 / A510 of reaction group, Reaction 2 / A510 of reaction group, Reaction 3: AAD-12 enzyme with substrate, chromogenic detection at 510 nm; for Increased A510: reaction group versus blank group
T1 construct: made in house; host or cells: E. coli BL21(DE3)
Experimental: As reported in literature (Fukomori and Flausinger, Purification and characterization of 2,4-dichlorophenoxyacetate/alpha-ketoglutarate dioxygenase Journal of Biological Chemistry (1993) 268(32): 24311-24317), the constructed expression vector pET15b-AAD12 was transformed into E. coli BL21(DE3) and induced by IPTG for expression. After cells were collected and lysed, Ni-NTA column was used for purification and the purity of the protein was analyzed by SDS-PAGE.
Since phenolic products were produced by AAD-12-substrate catalytic reaction, 4-aminoantipyrine and potassium ferricyanide could be used to develop color with the products in an alkaline environment to generate red products with absorption at 510 nm, and the relevant parameters were directly read with a microplate reader.

[2] = tested on: Arabidopsis thaliana; assay: Spray testing of T2 generation transgenic Arabidopsis thaliana; format: in vivo; settings: 100 g/ha foliage spray, 10 days after spraying
Description: The T2 generation seedlings of four representative transformants, pQY2309, pQY2310, pQY2311 and pQY2313, were selected for further spray testing. Four lines were randomly selected from the T2 generation generated by transformation of each vector, and respectively foliage-sprayed with 2,4-D (100 g/ha), MCPA (100 g/ha) and 2,4-DB sodium (100 g/ha) when Arabidopsis thaliana seeds germinated, transplanted and the seedlings grew to 5-7 leaf. Non-transgenic wild-type Col-0 served as a negative control. The level of resistance was assessed 10 days after spraying.

[3] = tested on: Arabidopsis thaliana; assay: Herbicide resistance of transgenic Arabidopsis thaliana seedlings on plate medium (root growth); format: in vivo; settings: plate medium: 2,4-D 0.3 μmol; 2,4-DB sodium 0.7 μmol; MCPA 0.1 μmol
Experimental: Expression in Arabidopsis thaliana was regulated by its AtUbi10 Arabidopsis thaliana ubiquitin promoter and the MAS (mannopine synthase) terminator. Hygromycin resistance gene (HygR=hpt) served as the selection marker.
Preparation of Agrobacterium infection solution: An activated Agrobacterium (GV3101) monoclone was picked and inoculated in 30 ml YEP liquid medium [yeast powder 10 g/L, tryptone 10 g/L, NaCl 5 g/L, 25 mg/L Rifampicin and 50 mg/L Kanamycin], shaking-cultured at 200 rmp/min, 28° C. overnight until the OD600 was about 1.0-1.5, then centrifuged at 6000 rmp/min for 10 min to collect the bacteria, and the supernatant was discarded. Arabidopsis thaliana infection solution (sucrose 50 g/L, Silwet L-77 300 μL/L, no need to adjust pH) was used to resuspend the cells to OD600=0.8 for later use.
Genetic transformation of Arabidopsis thaliana by flower dipping: Before transformation of Arabidopsis thaliana plants, attentions were paid to whether the plants were growing well, the inflorescences were abundant, and no stress response occurred. The first transformation was performed when plants were about 20 cm high. Plants could be properly watered if the soil was dry. The grown siliques were cut off with scissors the day before transformation. The inflorescences of the plants to be transformed were soaked in the above-mentioned Agrobacterium solution for 30 seconds to 1 minute, which was stirred gently during the period. And a layer of liquid film should appear on the infiltrated plant. The transformed plants were cultured in a dark environment for 24 hours, and then taken out and grown in a normal light environment. A second transformation could be performed in the same way a week later. […]

T1 sequence (P83309 2-292, added parts left off): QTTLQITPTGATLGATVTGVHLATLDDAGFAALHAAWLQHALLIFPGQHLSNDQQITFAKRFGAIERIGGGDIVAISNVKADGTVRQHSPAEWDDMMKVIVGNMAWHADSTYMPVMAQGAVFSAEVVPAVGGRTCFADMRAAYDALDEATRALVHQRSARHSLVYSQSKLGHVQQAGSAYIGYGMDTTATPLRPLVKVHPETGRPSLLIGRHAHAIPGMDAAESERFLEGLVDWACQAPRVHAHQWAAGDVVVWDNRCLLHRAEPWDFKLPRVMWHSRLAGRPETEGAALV

| SMILES | Degradation activity of expressed AAD-12 enzyme on the substrate [1] | A510 of reaction group, Reaction 1 [1] | A510 of reaction group, Reaction 2 [1] | A510 of reaction group, Reaction 3 [1] | Increased A510 [1] | Effect of the herbicide spray on wild-type Col-0 [2] | Effect of the herbicide on seminal roots of wild-type Col-0 [3] |
| --- | --- | --- | --- | --- | --- | --- | --- |
| CC(C)CCCCCOC(=O)COc1ccc(Cl)cc1Cl [2,4-D isooctyl ester] | degradation activities | 0.1570 | 0.1578 | 0.1497 | +0.019 |  |  |
| O=C([O-])CCCOc1ccc(Cl)cc1Cl.[Na+] [2,4-DB sodium, reference compound] |  |  |  |  |  | all or almost all non-transgenic wild-type Arabidopsis thaliana died; also recorded: severely injured | seminal roots are inhibited; also recorded: seminal roots are not able to grow |
| O=C(O)CCCOc1ccc(Cl)cc1Cl [2,4-DB, 4-(2,4-dichlorophenoxy)butanoic acid] | degradation activities | 0.1373 | 0.1326 | 0.1345 | +0.017 |  |  |
| Cc1cc(Cl)ccc1OCC(=O)O [MCPA, (4-chloro-2-methylphenoxy)acetic acid] | degradation activities | 0.1998 | 0.2076 |  | +0.035 | all or almost all non-transgenic wild-type Arabidopsis thaliana died; also recorded: all die | seminal roots are inhibited; also recorded: seminal roots are not able to grow |
